Common to all, as to type: biochemical
For one assay, the target named is T1, LCK tyrosine kinase (Homo sapiens, UniProt P06239, C224D/P223M).
T1 construct: starting from amino acid 223 to the end of the protein at amino acid 509; made in house; host or cells: insect cells
Put plainly: Inhibition of phosphorylated LCK tyrosine kinase activity. To be noted: read-out: LCK % Inhib. at 1 μM. The procedure: Inhibition of Phosphorylated FGF Receptor and LCK Tyrosine Kinase Activity
Cloning, expression and purification of the cytosolic domain of FGFR1 tyrosine kinase (amino acids 456–766) containing three amino acid substitutions (L457V, C488A, and C584S) were conducted as previously described (Mohammadi, M., Schlessinger, J., & Hubbard, S. R. (1996) Cell 86, 577–587). This domain was expressed in Sf9 insect cells using a baculovirus expression vector, and protein was purified using conventional techniques. The LCK tyrosine kinase was expressed in insect cells as an N-terminal deletion starting from amino acid 223 to the end of the protein at amino acid 509. The N-terminus of the protein also had two amino acid substitutions, P223M and C 224D. Kinases were purified using conventional chromatographic methods.
Tyrosine kinase activity was measured using a coupled, continuous spectrophotometric assay, in which production of phosphorylated poly(Glu, Tyr; 4:1) substrate and ADP is coupled to the pyruvate kinase-catalyzed transfer of a phosphate from phosphoenolpyruvate to ADP, with generation of pyruvate and regeneration of ATP. Pyruvate production is in turn coupled to the lactate dehydrogenase-catalyzed reduction of pyruvate to form lactate, with concomitant conversion of NADH to NAD+. Loss of NADH is monitored by measuring absorbance at 340 nm (see e.g., Technikova-Dobrova et al., “Spectrophotometric determination of functional characteristics of protein kinases with coupled enzymatic assay,” FEBS Letters, vol. 292 (1991), pp. 69–72). Enzyme activity was measured in the presence of 200 mM HEPES (pH 7.5), 2 mM phosphoenolpyruvate, 0.3 mM NADH, 20 mM MgCl2, 100 μM ATP, 5 mM DTT, 5.1 or 25 mM poly (Glu,Tyr) 4:1 for P-FGF or P-LCK assays, respectively, and 15 units/mL each of pyruvate kinase and lactate dehydrogenase. Phosphorylated FGF receptor kinase was present at 100 nM and phosphorylated LCK kinase was present at 50 nM. Assays were performed under initial rate conditions at 37° C., and rates were corrected for any background rate measured in the absence of enzyme. Percent inhibition was calculated relative to control enzyme assayed in the presence of 2% (v/v) DMSO.

A further assay has as its target T2, human CHK1 (Homo sapiens, UniProt O14757).
T2 construct: C-terminally His-tagged full-length human CHK1 (FL-CHK1) was expressed using the baculovirus/insect cell system; made in house; host or cells: baculovirus/insect cells
T2 sequence (O14757 1-476): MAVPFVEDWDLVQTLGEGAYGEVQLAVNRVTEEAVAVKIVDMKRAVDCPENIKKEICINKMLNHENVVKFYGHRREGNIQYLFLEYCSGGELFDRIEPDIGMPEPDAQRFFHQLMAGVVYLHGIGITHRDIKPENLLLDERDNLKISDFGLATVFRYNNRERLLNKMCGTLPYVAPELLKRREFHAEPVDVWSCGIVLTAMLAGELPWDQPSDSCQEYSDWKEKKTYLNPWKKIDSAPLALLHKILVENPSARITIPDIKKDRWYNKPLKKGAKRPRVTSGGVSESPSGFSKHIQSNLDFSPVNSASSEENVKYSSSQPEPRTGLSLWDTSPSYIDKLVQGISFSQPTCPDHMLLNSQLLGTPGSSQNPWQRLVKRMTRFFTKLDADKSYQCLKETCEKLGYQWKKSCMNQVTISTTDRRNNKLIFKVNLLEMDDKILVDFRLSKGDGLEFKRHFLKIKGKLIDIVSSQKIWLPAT
The assay is described as follows: CHK1 Assay (coupled spectrophotometric). From the text: C-terminally His-tagged full-length human CHK1 (FL-CHK1) was expressed using the baculovirus/insect cell system. It contains 6 histidine residues (6×His-tag) at the C-terminus of the 476 amino acid human CHK1. The protein was purified by conventional chromatographic techniques.
The production of ADP from ATP that accompanies phosphoryl transfer to the synthetic substrate peptide Syntide-2 ([…]) was coupled to oxidation of NADH using phosphoenolpyruvate (PEP) through the actions of pyruvate kinase (PK) and lactic dehydrogenase (LDH). The oxidation of NADH was monitored by following the decrease of absorbance at 340 nm (ε340=6.22 cm^−1 mM^−1) using a HP8452 spectrophotometer. Typical reaction solutions contained: […]; 0.15 mM NADH; 28 units of LDH/ml; 16 units of PK/ml; 3 mM DTT; 0.125 mM Syntide-2; 0.15 mM ATP; 25 mM MgCl2 in 50 mM TRIS, pH 7.5; and 400 mM NaCl. Assays were initiated with 10 nM of FL-CHK1. Ki values were determined by measuring initial enzyme activity in the presence of varying concentrations of test compounds. The data were analyzed using Enzyme Kinetic and Kaleidagraph software.

The subject of a further assay is FAK. Put plainly: Coupled Spectrophotometric (FAK) Assay. The procedure: Coupled Spectrophotometric (FAK) Assay
Tyrosine kinase assays were monitored using a Beckman DU 650 Spectrophotometer. Production of ADP was coupled to oxidation of NADH using phosphoenolpyruvate (PEP) through the actions of pyruvate kinase (PK) and lactic dehydrogenase (LDH). The oxidation of NADH was monitored by following the decrease in absorbance at 340 nm (ε340=6.22 cm^−1 mM^−1). Typical reaction solutions contained: 1 mM PEP, 250 μM NADH, 50 units of LDH/mL, 20 units of PK/mL, 5 mM DTT, in 200 mM Hepes, pH 7.5 and varying concentrations of poly(E4Y1), ATP and MgCl2. Assays were initiated with 40 nM of […].

The text below walks through data of patent US7232912B2, “Indazole compounds, pharmaceutical compositions, and methods for mediating or inhibiting cell proliferation” (Agouron Pharmaceuticals, Inc., priority 2000, dated 2007).

Each structure is given as a SMILES string.

T1 sequence (P06239 223-509 P223M/C224D): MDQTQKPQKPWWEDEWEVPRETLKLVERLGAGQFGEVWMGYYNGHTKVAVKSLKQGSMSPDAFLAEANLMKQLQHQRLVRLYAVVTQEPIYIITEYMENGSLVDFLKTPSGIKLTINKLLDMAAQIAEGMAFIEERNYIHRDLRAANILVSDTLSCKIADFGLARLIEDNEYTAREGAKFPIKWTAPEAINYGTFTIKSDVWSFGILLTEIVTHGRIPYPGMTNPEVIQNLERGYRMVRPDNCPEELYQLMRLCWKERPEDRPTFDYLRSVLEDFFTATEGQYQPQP

Consider `Fc1ccccc1-c1ccc2[nH]nc(-c3nc4ccccc4[nH]3)c2c1` [Example 6, 3-(1H-Benzoimidazol-2-yl)-5-(2-fluorophenyl)-1H-Indazole], for which the inhibition at 1 µM at LCK tyrosine kinase was 11%. At human CHK1, this compound came in with an inhibition at 20 µM of 80%.
As to `Cc1c(O)cccc1-c1ccc2[nH]nc(-c3nc4ccccc4[nH]3)c2c1` [10′, 3-[3-(1H-Benzoimidazol-2-yl)-1H-indazol-5-yl]-2-methyl-phenol], at LCK tyrosine kinase, the inhibition at 1 µM was 21%. For the same compound, the inhibition at 10 µM on human CHK1 (read-out: CHK1 % inhibition @ 10 μM, at 10 μM) stood at 5%.
For the compound `Cc1c(O)cccc1-c1ccc2[nH]nc(/C=C/c3ccccc3)c2c1` [15′, 2-Methyl-3-[3-((E)-styryl)-1H-indazol-5-yl]-phenol], the inhibition at 1 µM on LCK tyrosine kinase came out at 17%; at human CHK1 (read-out: CHK1 % inhibition at 1 μM), 16%.
Regarding `C(=C\c1n[nH]c2ccc(-c3cncc4ccccc34)cc12)/c1ccccc1` [Example 16], the “FAK % Inhibition at 1 μM” value with FAK is recorded as 47%. The affinity at human CHK1 corresponds to a Ki of 81 µM.
`c1ccc2[nH]c(-c3n[nH]c4ccc(-c5cccc6[nH]ccc56)cc34)nc2c1` [Example 48, 3-(1H-Benzoimidazol-2-yl)-5-(1H-indol-4-yl)-1H-indazole]: the Ki (as a rule, a measure of affinity in units of concentration, obtained from inhibition or displacement) on human CHK1 came to 7.82 µM.
